≈ marks a conversion by molar mass, not a printed value.

For one series, the system named is P388. Description: IP P388, Days 1-9 (NCI murine test system). Type of series: in vivo. Conditions: IP P388, Days 1-9, dose 400. As to the method: Anti-tumor or anti-neoplastic activity of the novel derivatives of the present invention is determined by using the murine test system for screening anti-cancer compounds as standardized by the National Cancer Institute, Bethesda, Md., U.S.A., and described in Cancer Chemotherapy Reports, 3 (2) 1-103 (1972) which publication is incorporated herein by reference.
It is noted that although the intraperitoneal mode of administration of the novel derivatives is preferred, other modes of parenteral administration, e.g. subcutaneous, intravenous, etc., are, of course, possible and included within the purview of this invention. Similarly, although water has been used as a vehicle for the administration of the compounds of the present invention, other pharmaceutically acceptable vehicles, e.g. saline, buffers, and other aqueous media may also be used for the administration of these compounds together with adjuvants, agents or additives commonly employed in the preparation of pharmaceutical compositions. Examples of such agents, additives and adjuvants that may be employed are listed in Instruction 14, Screening Data Summary Interpretation and Outline of Clinical Screen. Drug Evaluation Branch, NCI. and are incorporated herein by reference.

A further series in a line: Water solubility. Conditions: for solubility: read-out: H2O Sol. % (g per 100 ml H2O). Format: physicochemical.
The test system of series [1] is L1210 leukemia. Description: IP implanted L1210 leukemia in mice (CD2F1). Format: in vivo.
The test system of series [2] is L1210 leukemia. The series is described as follows: S.C. implanted L1210 leukemia in mice (CD2F1). Format: in vivo.
Source text: ^a Experimental formulation of mitindomide was used (NaOH + manitol).
Where [3] appears, read: 21.6 mg/kg IP days 1-9, Expt. 1.
[4] abbreviates: 21.6 mg/kg IP days 1-9, Expt. 2.
Where [5] appears, read: 21.6 mg/kg IP days 1-9, Expt. 3.
Setting [6] is: 166.7 mg/kg IP days 1-9, Expt. 1.
Where [7] appears, read: 166.7 mg/kg IP days 1-9, Expt. 3.
The mark [8] stands for this setting: 21.6 mg/kg ip days 1-9, Expt. 1.
[9] abbreviates: 21.6 mg/kg ip days 1-9, Expt. 2.
The mark [10] stands for this setting: 36.0 mg/kg ip days 1-9, Expt. 1.
Where [11] appears, read: 36.0 mg/kg ip days 1-9, Expt. 2.
Where [12] appears, read: 60.0 mg/kg ip days 1-9, Expt. 1.
Where [13] appears, read: 60.0 mg/kg ip days 1-9, Expt. 2.
The mark [14] stands for this setting: 100.0 mg/kg ip days 1-9, Expt. 1.
Where [15] appears, read: 100.0 mg/kg ip days 1-9, Expt. 2.
The mark [16] stands for this setting: 166.7 mg/kg ip days 1-9, Expt. 2.

With `CC(=O)OCN1C(=O)C2C3C=CC(C2C1=O)C1C2C(=O)N(COC(C)=O)C(=O)C2C31` (centres unmarked) [Example 8, 4,8-Ethenopyrrolo3',4':3,4cyclobut[1,2-f]isoindole-1,3,5,7(2H,6H)-tetrone,3a,3b,4,4a,7a,8a,8b-octahydro-2,6-bis(acetyloxymethyl)], in the series with P388, the T/C is 208 and the “fraction printed in brackets behind T/C (not explained)” value is on record as 1/5. Also, in the series “Water solubility” (water), the solubility came out at 1000 µg/mL (≈ 2.4 mM).
As to `NCC(=O)OCN1C(=O)C2C3C=CC(C2C1=O)C1C2C(=O)N(COC(=O)CN)C(=O)C2C31` (centres unmarked) [Example 9, 4,8-Ethenopyrrolo[3',4':3,4]cyclobut[1,2-f]isoindole-1,3,5,7(2H,6H)-tetrone,3a,3b,4,4a,7a,8,8a,8b-octahydro-2-,6bis(2-aminoacetyloxymethyl)], the solubility in “Water solubility” (water) worked out at 20000 µg/mL (≈ 44.8 mM).
Consider `CN1CCN(CN2C(=O)C3C4C=CC(C3C2=O)C2C3C(=O)N(CN5CCN(C)CC5)C(=O)C3C42)CC1` (centres unmarked) [Example 3, 4,8-Ethenopyrrolo[3'4':3,4]cyclobut[1,2-f]isoindole-1,3,5,7(2H,6H)-tetrone,3a,3b,4,4a,7a,8,8a,8b-octahydro-2,6-bis(N-methylpiperazinomethyl)], for which the ILS in the series on L1210 leukemia [1] (setting [3]) turned out to be 4%; in the series on L1210 leukemia [1] (setting [4]) it was 3%; in the series with L1210 leukemia [1] (setting [5]), 9%; in the series with L1210 leukemia [1] (36 mg/kg IP days 1-9, Expt. 1), 5%; with L1210 leukemia [1] (36 mg/kg IP days 1-9, Expt. 2), 12%; in the series on L1210 leukemia [1] (36 mg/kg IP days 1-9, Expt. 3), 9%. Also, the increase in life span (ILS) with L1210 leukemia [1] (60 mg/kg IP days 1-9, Expt. 1) was found to be 37%; in the series on L1210 leukemia [1] (60 mg/kg IP days 1-9, Expt. 2), 75%; in the series on L1210 leukemia [1] (60 mg/kg IP days 1-9, Expt. 3), 46%; in the series on L1210 leukemia [1] (100 mg/kg IP days 1-9, Expt. 1), 37%; in the series on L1210 leukemia [1] (100 mg/kg IP days 1-9, Expt. 2), 141%; in the series with L1210 leukemia [1] (100 mg/kg IP days 1-9, Expt. 3), 95%. Moreover, the ILS amounted to 156% in the series on L1210 leukemia [1] (setting [7]); 6% in the series with L1210 leukemia [2] (setting [8]); 10% in the series on L1210 leukemia [2] (setting [9]); 13% in the series with L1210 leukemia [2] (setting [10]); 5% in the series on L1210 leukemia [2] (setting [11]); 70% with L1210 leukemia [2] (setting [12]). The ILS with L1210 leukemia [2] (setting [13]) is reported as 14%; with L1210 leukemia [2] (setting [14]), 143%; in the series with L1210 leukemia [2] (setting [15]), 72%; in the series on L1210 leukemia [2] (setting [16]) it was 133%. For the same molecule, the MST with L1210 leukemia [1] (setting [3]) is on record as 9.1 days; in the series with L1210 leukemia [1] (setting [4]), 8.3 days; in the series with L1210 leukemia [1] (setting [5]), 9.0 days; in the series on L1210 leukemia [1] (36 mg/kg IP days 1-9, Expt. 1) it was 9.2 days; with L1210 leukemia [1] (36 mg/kg IP days 1-9, Expt. 2), 9.0 days; in the series on L1210 leukemia [1] (36 mg/kg IP days 1-9, Expt. 3), 9.0 days. Moreover, the MST in the series on L1210 leukemia [1] (60 mg/kg IP days 1-9, Expt. 1) came out at 12.0 days; in the series with L1210 leukemia [1] (60 mg/kg IP days 1-9, Expt. 2), 14.0 days; in the series on L1210 leukemia [1] (60 mg/kg IP days 1-9, Expt. 3), 12.0 days; in the series with L1210 leukemia [1] (100 mg/kg IP days 1-9, Expt. 1), 12.0 days; with L1210 leukemia [1] (100 mg/kg IP days 1-9, Expt. 2), 19.3 days; in the series on L1210 leukemia [1] (100 mg/kg IP days 1-9, Expt. 3), 16.0 days. Moreover, the MST in the series with L1210 leukemia [1] (setting [6]) is given as 6.3 days; in the series on L1210 leukemia [1] (setting [7]), 21.0 days; in the series with L1210 leukemia [2] (setting [8]), 8.7 days; with L1210 leukemia [2] (setting [9]) it was 11.8 days; in the series on L1210 leukemia [2] (setting [10]), 9.3 days; in the series on L1210 leukemia [2] (setting [11]) it was 11.3 days. For the same molecule, the MST came out at 14.0 days in the series with L1210 leukemia [2] (setting [12]); 12.3 days with L1210 leukemia [2] (setting [13]); 20.0 days in the series on L1210 leukemia [2] (setting [14]); 18.5 days in the series on L1210 leukemia [2] (setting [15]); 25.0 days with L1210 leukemia [2] (setting [16]). Besides, the “Wt. Change” value in the series on L1210 leukemia [1] (setting [3]) is 1.9 g; with L1210 leukemia [1] (setting [4]), 0.7 g; in the series on L1210 leukemia [1] (setting [5]), 0.2 g; with L1210 leukemia [1] (36 mg/kg IP days 1-9, Expt. 1), 1.7 g; in the series with L1210 leukemia [1] (36 mg/kg IP days 1-9, Expt. 2) it was -0.5 g; in the series with L1210 leukemia [1] (36 mg/kg IP days 1-9, Expt. 3), 0.2 g. Also, the “Wt. Change” value in the series on L1210 leukemia [1] (60 mg/kg IP days 1-9, Expt. 1) is -0.4 g; in the series on L1210 leukemia [1] (60 mg/kg IP days 1-9, Expt. 2), -4.4 g; in the series with L1210 leukemia [1] (60 mg/kg IP days 1-9, Expt. 3) it was -1.3 g; in the series on L1210 leukemia [1] (100 mg/kg IP days 1-9, Expt. 1) it was -2.9 g; in the series with L1210 leukemia [1] (100 mg/kg IP days 1-9, Expt. 2) it was -4.8 g; in the series with L1210 leukemia [1] (100 mg/kg IP days 1-9, Expt. 3), -3.1 g. Moreover, the “Wt. Change” value in the series on L1210 leukemia [1] (setting [6]) was -5.2 g; with L1210 leukemia [1] (setting [7]) it was -5.2 g; with L1210 leukemia [2] (setting [8]) it was -0.3 g; with L1210 leukemia [2] (setting [9]) it was 0.2 g; in the series with L1210 leukemia [2] (setting [10]) it was -1.0 g; in the series with L1210 leukemia [2] (setting [11]), -0.4 g. Besides, the “Wt. Change” value with L1210 leukemia [2] (setting [12]) is -4.2 g; with L1210 leukemia [2] (setting [13]), -0.7 g; in the series with L1210 leukemia [2] (setting [14]) it was -5.3 g; in the series on L1210 leukemia [2] (setting [15]), -3.1 g; in the series with L1210 leukemia [2] (setting [16]) it was -4.9 g. In addition, the “solubility of dosed preparation” value in the series with L1210 leukemia [1] (Table 4 Expt. 1, vehicle water, 60 mg/kg and higher) was “insoluble”. Besides, the “H2O Sol. % (g per 100 ml H2O)” value in the series “Water solubility” (water) was 1.5 % (g per 100 ml H2O).
In the case of `CC(=O)OC(C(=O)O)N1C(=O)C2C3C=CC(C2C1=O)C1C2C(=O)N(C(OC(C)=O)C(=O)O)C(=O)C2C31` (centres unmarked) [Example 11], in “Water solubility” (freeze-dried solid after pH adjusted to 6.11 with sodium bicarbonate), the solubility in water result is recorded as “soluble in water”. For the same molecule, the solubility in the series “Water solubility” (water) came out at 50000 µg/mL (≈ 99.1 mM).
Take `O=C1C2C3C=CC(C2C(=O)N1CO)C1C2C(=O)N(CO)C(=O)C2C31` (centres unmarked) [Example 2, 4,8-Ethenopyrrolo[3',4':3,4]cyclobut[1,2-f]isoindole-1,3,5,7(2H,6H)-tetrone,3a,3b,4,4a,7a,8,8a,8b-octahydro-2-,6-bis(hydroxymethyl)-]: the solubility in “Water solubility” (water) stood at 8000 µg/mL (≈ 24.1 mM).
On the same count and under the same terms, to `O=C1C2C3C=CC(C2C(=O)N1CN1CCSCC1)C1C2C(=O)N(CN4CCSCC4)C(=O)C2C31` (centres unmarked) [Example 6, 4,8-Ethenopyrrolo[3'4':3,4]cyclobut[1,2-f]isoindole-1,3,5,7(2H,6H)-tetrone,3a,3b,4,4a,7a,8,8a,8-octahydro-2,6-bis(thiomorpholinomethyl)] belongs 1000 µg/mL (≈ 1.99 mM); to `CCN(CC)CN1C(=O)C2C3C=CC(C2C1=O)C1C2C(=O)N(CN(CC)CC)C(=O)C2C31` (centres unmarked) [Example 7, 4,8-Ethenopyrrolo[3',4':3,4]cyclobut[1,2-f]isoindole-1,3,5,7(2H,6H)-tetrone,3a,3b,4,4a,7a,8,8a,8b-octahydro-2,6-bis(N,N-diethylaminomethyl)], 1000 µg/mL (≈ 2.26 mM).
With `O=C(O)CCC(=O)OCN1C(=O)C2C3C=CC(C2C1=O)C1C2C(=O)N(COC(=O)CCC(=O)O)C(=O)C2C31` (centres unmarked) [Example 10, 4,8-Ethenopyrrolo[3',4':3,4]cyclobut[1,2-f]isoindole-1,3,5,7(2H,6H)-tetrone,3a,3b,4,4a,7a,8,8a,8b-octahydro-2-,6-bis(succinyloxymethyl)], the solubility in water entry is reported as “readily soluble in water” in “Water solubility” (freeze-dried powder after pH adjusted to 6.33 with sodium bicarbonate) and “not soluble” in the series “Water solubility” (title compound, 2.4 g mixed with 150 ml of water). Moreover, the solubility in “Water solubility” (water) was 20000 µg/mL (≈ 37.6 mM).
In the case of `O=C1C2C3C=CC(C2C(=O)N1CN1CCOCC1)C1C2C(=O)N(CN4CCOCC4)C(=O)C2C31` (centres unmarked) [Example 5, 4,8-Ethenopyrro[3',4':3,4]cyclobut[1,2-f]isoindole-1,3,5,7(2H,6H)-tetrone,3a,3b,4,4a,7a,8,8a,8b-octahydro-2,6-bis(morpholinomethyl)], the solubility in the series “Water solubility” (water) stood at 1000 µg/mL (≈ 2.13 mM).

For orientation: ILS means the gain in survival time of treated over control animals, in per cent. A lower ILS goes with little gain in survival.

For the origin of these results see patent publication US4670461A, “Formaldehyde derivatives of mitindomide” (priority 1984, dated 1987).
